Where a name gives a salt, the structure may show the parent alone.
Columns and labels:
[1] = target: MELK (Homo sapiens, UniProt Q14680); test: Kinase assay (IMAP fluorescence polarization, FITC-labeled histone H3 peptide); assay type: biochemical; conditions: 50 micro-M ATP
Method in brief: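 Kinase (0.8 ng/μL) reacted with 100 nM FITC-histone H3 peptide and 50 μM ATP in 20 mM HEPES, 0.3 mM MgCl2, 2 mM DTT, 0.01% Tween-20, pH 7.4, for 1 hour at room temperature. Phosphorylation read by IMAP fluorescence polarization after adding binding solution; IC50 from four-parameter fit.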

[2] = tested on: HT1197 cells; test: Cell-based assay, anti-proliferative activity, MELK-negative control (Cell Counting Kit-8, 72 hours); parameters: species or system human; conditions: Homo sapiens, HT1197, 72 h, read-out: IC50 (μM) (HTll97)
Procedure: 100 micro-L of cell suspension was seeded onto 96-well microtiter plate (ViewPlate-96FTC, PerkinElmer). The initial cell concentration of 22Rv1, T47D, A549, DU4475, and HT1197 were 3,000 cells/well, 2,000 cells/well and 2,500 cells/well, respectively. Cellular growth was determined using Cell Counting Kit-8 (DOJINDO) at 72 hours after the exposure of the candidate inhibitors. […] Accurate IC50 values were calculated as described previously.

[3] = tested on: 22Rv1 cells; test: Cell-based assay, anti-proliferative activity (Cell Counting Kit-8, 72 hours); parameters: species or system human; conditions: Homo sapiens, 22Rv1, 72 h, read-out: IC50 (μM) (22Rvl)
Method in brief: (§1)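 Cells seeded at 2,000–3,000 cells/well and exposed to candidate MELK inhibitors for 72 hours; growth measured with Cell Counting Kit-8. IC50 values calculated from the growth read-out.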

[4] = tested on: A549 cells; test: as above; parameters: species or system human; conditions: Homo sapiens, A549, 72 h, read-out: IC50 (μM) (A549)
Method in brief: as §1

[5] = tested on: T47D cells; test: as above; parameters: species or system human; conditions: Homo sapiens, T47D, 72 h, read-out: IC50 (μM) (T47D)
Method in brief: as §1

[6] = tested on: DU4475 cells; test: as above; parameters: species or system human; conditions: Homo sapiens, DU-4475, 72 h, read-out: IC50 (μM) (DU4475)
Method in brief: as §1

Chain of MELK (Q14680 whole entry, looked up): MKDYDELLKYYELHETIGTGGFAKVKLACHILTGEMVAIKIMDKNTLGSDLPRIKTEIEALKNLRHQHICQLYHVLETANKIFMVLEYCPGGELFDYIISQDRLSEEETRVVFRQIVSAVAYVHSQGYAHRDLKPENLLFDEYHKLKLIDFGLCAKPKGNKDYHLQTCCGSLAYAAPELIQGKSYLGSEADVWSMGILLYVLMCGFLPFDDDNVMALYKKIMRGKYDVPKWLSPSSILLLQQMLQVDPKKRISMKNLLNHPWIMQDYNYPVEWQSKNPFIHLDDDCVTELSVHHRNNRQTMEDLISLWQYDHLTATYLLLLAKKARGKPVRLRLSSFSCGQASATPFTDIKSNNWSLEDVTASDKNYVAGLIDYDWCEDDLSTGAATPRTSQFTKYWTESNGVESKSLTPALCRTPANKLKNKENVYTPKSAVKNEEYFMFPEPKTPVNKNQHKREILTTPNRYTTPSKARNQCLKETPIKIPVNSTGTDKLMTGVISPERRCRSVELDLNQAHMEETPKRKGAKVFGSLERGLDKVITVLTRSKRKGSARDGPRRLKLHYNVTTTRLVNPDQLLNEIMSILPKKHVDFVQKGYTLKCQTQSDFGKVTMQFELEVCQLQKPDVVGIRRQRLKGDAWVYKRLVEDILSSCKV

Structure (SMILES)	IC50 [1]	IC50 [2]	IC50 [3]	IC50 [4]	IC50 [5]	IC50 [6]
CC(=O)c1cnc2ccc(-c3cc(F)c(O)c(Cl)c3)nc2c1Nc1ccc(N2CCC[C@@H](N)C2)nc1 [Example 96, (R)-1-{4-[6-(3-Aminopiperidin-1-yl)pyridin-3-ylamino]-6-(3-chloro-5-fluoro-4-hydroxyphenyl)-1,5-naphthyridin-3-yl}ethanone]	0.0036 µM	0.43 µM	0.026 µM	0.035 µM	0.018 µM	0.024 µM
N[C@@H]1CCCN(c2ccc(Nc3c(C(=O)C4CC4)cnc4ccc(-c5cc(Cl)c(O)c(Cl)c5)nc34)cn2)C1 [Example 201, (R)-(4-{[6-(3-aminopiperidin-1-yl)pyridin-3-yl]amino}-6-(3,5-dichloro-4-hydroxyphenyl)-1,5-naphthyridin-3-yl) (cyclopropyl)methanone]	0.00093 µM	0.032 µM	0.0061 µM	0.0061 µM	0.0025 µM	0.003 µM
N[C@@H]1CCCN(c2ccc(Nc3c(C(=O)C4CC4)cnc4ccc(-c5cc(F)c(O)c(Cl)c5)nc34)cn2)C1 [Example 202, (R)-(4-{[6-(3-aminopiperidin-1-yl)pyridin-3-yl]amino}-6-(3-chloro-5-fluoro-4-hydroxyphenyl)-1,5-naphthyridin-3-yl) (cyclopropyl) methanone]	0.00046 µM	0.047 µM	0.0044 µM	0.0054 µM	0.0038 µM	0.001 µM
CN(C)[C@H]1CC[C@H](Nc2c(C(=O)CO)cnc3ccc(-c4cc(Cl)c(O)c(Cl)c4)nc23)CC1 [Example 203, 1[6-(3,5-dichloro-4-hydroxyphenyl)-4-{[trans-4-(dimethylamino)cyclohexyl]amino}-1,5-naphthyridin-3-yl)-2-hydroxyethanone dihydrochloride]	0.0015 µM	1.2 µM	0.017 µM	0.034 µM	0.0093 µM	0.013 µM
CN(C)C[C@H]1CC[C@H](Nc2c(C(=O)CO)cnc3ccc(-c4cc(F)c(O)c(Cl)c4)nc23)CC1 [Example 204, 1-[6-(3-chloro-5-fluoro-4-hydroxyphenyl)-4-({trans-4-[(dimethylamino)methyl]cyclohexyl}amino)-1,5-naphthyridin-3-yl)]-2-hydroxyethanone dihydrochloride]	0.0013 µM	10 µM	0.02 µM	0.058 µM	0.014 µM	0.013 µM
CCC(=O)c1cnc2ccc(-c3cc(F)c(O)c(Cl)c3)nc2c1N[C@H]1CC[C@H](CN(C)C)CC1 [Example 205, 1-[6-(3-chloro-5-fluoro-4-hydroxyphenyl)-4-({trans-4-[(dimethylamino)methyl]cyclohexyl}amino)-1,5-naphthyridin-3-yl)]propan-1-one dihydrochloride]	0.0028 µM	0.69 µM	0.022 µM	0.032 µM	0.0083 µM	0.033 µM
CCC(=O)c1cnc2ccc(-c3cc(Cl)c(O)c(Cl)c3)nc2c1N[C@H]1CC[C@H](CN(C)C)CC1 [Example 206, 1-[6-(3,5-dichloro-4-hydroxyphenyl)-4-({trans-4-[(dimethylamino)methyl]cyclohexyl}amino)-1,5-naphthyridin-3-yl)]propan-1-one dihydrochloride]	0.0013 µM	10 µM	0.022 µM	0.061 µM	0.01 µM	0.023 µM
CCC(=O)c1cnc2ccc(-c3cc(Cl)c(O)c(Cl)c3)nc2c1Nc1ccc(N2CCC[C@H](N)C2)nc1 [Example 207, (S)-1-(4-{[6-(3-aminopiperidin-1-yl)pyridin-3-yl]amino}-6-(3,5-dichloro-4-hydroxyphenyl)-1,5-naphthyridin-3-yl)propan-1-one trihydrochloride]	0.0016 µM	3.9 µM	0.034 µM	0.098 µM	0.018 µM	0.024 µM
CCC(=O)c1cnc2ccc(-c3cc(F)c(O)c(Cl)c3)nc2c1Nc1ccc(N2CCC[C@H](N)C2)nc1 [Example 208, (S)-1-(4{[6-(3-aminopiperidin-1-yl)pyridin-3-yl]amino}-6-(3-chloro-5-fluoro-4-hydroxyphenyl)-1,5-naphthyridin-3-yl)propan-1-one trihydrochloride]	0.0026 µM	0.86 µM	0.026 µM	0.063 µM	0.015 µM	0.021 µM
CC(=O)c1cnc2ccc(-c3cc(Cl)c(O)c(Cl)c3)nc2c1N[C@H]1CC[C@H](CN2CC[C@@H](F)C2)CC1 [Example 209, 1-[6-(3,5-dichloro-4-hydroxyphenyl)-4-({4-[((R)-3-fluoropyrrolidin-1yl)methyl]cyclohexyl}amino)-1,5-naphthyridin-3-yl]ethanone dihydrochloride]	0.002 µM	0.12 µM	0.032 µM	0.037 µM	0.036 µM	0.01 µM
N[C@H]1CCCN(c2ccc(Nc3c(C(=O)C4CCC4)cnc4ccc(-c5cc(F)c(O)c(Cl)c5)nc34)cn2)C1 [Example 210, (S)-(4-((6-(3-aminopiperidin-1-yl)pyridin-3-yl)amino)-6-(3-chloro-5-fluoro-4-hydroxyphenyl)-1,5-naphthyridin-3-yl)(cyclobutyl)methanone dihydrochloride]	0.0014 µM	1.4 µM	0.017 µM	0.042 µM	0.0093 µM	0.022 µM
CN(C)C[C@H]1CC[C@H](Nc2c(C(=O)C3CCC3)cnc3ccc(-c4cc(Cl)c(O)c(Cl)c4)nc23)CC1 [Example 211, (6-(3,5-dichloro-4-hydroxyphenyl)-4-((4-[(dimethylamino)methyl{cyclohexyl)amino)-1,5-naphthyridin-3-yl) (cyclobutyl)methanone dihydrochloride]	0.0027 µM	0.0077 µM	0.0072 µM	0.0076 µM	0.0034 µM	0.003 µM
CN(C)C[C@H]1CC[C@H](Nc2c(C(=O)C3CCC3)cnc3ccc(-c4cc(F)c(O)c(Cl)c4)nc23)CC1 [Example 212, (6-(3-chloro-5-fluoro-4-hydroxyphenyl)-4-((4-((dimethylamino)methyl)cyclohexyl)amino)-1,5-naphthyridin-3-yl)(cyclobutyl)methanone dihydrochloride]	0.0016 µM	0.014 µM	0.013 µM	0.014 µM	0.0074 µM	0.003 µM
CCC(=O)c1cnc2ccc(-c3cc(Cl)c(O)c(Cl)c3)nc2c1Nc1ccc(N2CCC[C@@H](N)C2)nc1 [Example 214, (R)-1-(4-((6-(3-aminopiperidin-1-yl)pyridin-3-yl)amino)-6-(3,5-dichloro-4-hydroxyphenyl)-1,5-naphthyridin-3-yl)propan-1-one trihydrochloride]	0.0013 µM	0.34 µM	0.0059 µM	0.013 µM	0.0028 µM	0.004 µM

From patent US9067937B2 (priority 2012, dated 2015)
